{"source": "patent US20250049735A1", "about": "“MEDICINE FOR STEATOHEPATITIS” (The University of Tokyo, priority 2021, published 2025)", "key": {"ATP8B1+CDC50A": {"target": "T1, ATP8B1+CDC50A (Homo sapiens, UniProt O43520)", "T1 construct": "expressed in transfected cells; host or cells: CHO-K1 cells (CCL-61, ATCC), transiently transfected with PEI MAX", "T1 sequence (O43520 1-1251)": "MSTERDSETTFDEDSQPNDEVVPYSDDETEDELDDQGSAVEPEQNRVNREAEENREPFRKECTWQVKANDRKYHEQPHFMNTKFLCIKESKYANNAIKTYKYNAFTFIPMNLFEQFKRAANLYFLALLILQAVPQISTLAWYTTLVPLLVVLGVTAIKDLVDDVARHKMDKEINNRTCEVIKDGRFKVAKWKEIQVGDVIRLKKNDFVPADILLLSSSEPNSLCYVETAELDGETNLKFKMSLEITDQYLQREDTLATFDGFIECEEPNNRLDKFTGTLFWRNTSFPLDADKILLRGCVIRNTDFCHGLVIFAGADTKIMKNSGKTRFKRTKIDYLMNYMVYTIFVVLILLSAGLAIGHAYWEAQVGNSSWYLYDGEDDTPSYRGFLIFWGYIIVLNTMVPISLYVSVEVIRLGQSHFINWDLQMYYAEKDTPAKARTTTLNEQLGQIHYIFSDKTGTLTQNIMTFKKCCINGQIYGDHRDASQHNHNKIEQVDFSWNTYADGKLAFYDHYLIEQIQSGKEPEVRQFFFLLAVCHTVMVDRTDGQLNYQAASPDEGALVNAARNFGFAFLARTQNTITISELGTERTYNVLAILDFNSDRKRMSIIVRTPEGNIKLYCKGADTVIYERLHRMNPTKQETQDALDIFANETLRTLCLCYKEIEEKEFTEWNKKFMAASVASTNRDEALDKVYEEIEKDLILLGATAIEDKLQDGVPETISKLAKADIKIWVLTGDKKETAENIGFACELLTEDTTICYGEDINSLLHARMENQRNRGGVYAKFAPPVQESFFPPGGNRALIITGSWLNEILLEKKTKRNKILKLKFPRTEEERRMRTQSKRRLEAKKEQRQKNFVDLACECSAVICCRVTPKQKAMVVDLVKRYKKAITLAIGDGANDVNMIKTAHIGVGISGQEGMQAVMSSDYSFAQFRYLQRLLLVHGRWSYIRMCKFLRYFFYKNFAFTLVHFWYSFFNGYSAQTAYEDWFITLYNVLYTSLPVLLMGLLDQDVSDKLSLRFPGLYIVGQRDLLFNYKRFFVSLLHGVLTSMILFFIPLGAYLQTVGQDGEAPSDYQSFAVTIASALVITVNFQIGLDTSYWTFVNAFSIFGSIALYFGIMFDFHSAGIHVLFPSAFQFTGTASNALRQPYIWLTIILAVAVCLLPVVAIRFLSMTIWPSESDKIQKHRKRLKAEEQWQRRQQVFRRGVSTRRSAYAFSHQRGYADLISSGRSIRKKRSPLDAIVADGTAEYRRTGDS", "T1 sequence (Q9NV96 1-361 partner)": "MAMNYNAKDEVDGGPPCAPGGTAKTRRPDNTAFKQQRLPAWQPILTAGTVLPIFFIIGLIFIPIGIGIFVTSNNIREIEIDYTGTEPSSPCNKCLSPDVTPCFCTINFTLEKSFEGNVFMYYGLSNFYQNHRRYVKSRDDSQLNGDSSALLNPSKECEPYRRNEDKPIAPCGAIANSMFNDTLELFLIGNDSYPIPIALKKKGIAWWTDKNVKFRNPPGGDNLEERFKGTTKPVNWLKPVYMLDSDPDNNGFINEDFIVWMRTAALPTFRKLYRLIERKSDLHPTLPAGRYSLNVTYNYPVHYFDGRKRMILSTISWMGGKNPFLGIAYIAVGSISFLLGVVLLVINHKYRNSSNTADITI", "experiment": "Flippase (ATP8B1) assay: incorporation of NBD-phospholipids into CHO-K1 cells", "assay_type": "cell-based", "conditions": "15° C.", "experimental": "The experiment regarding incorporation of NBD-phospholipids into cells was carried out according to the previous reports (Suzuki et al., Nature 468, 834-838 2010; Takatsu et al., J. Biol. Chem., 289:33543-33556 2014).\nTo allow CDC50A alone, or ATP8B1 and CDC50A, to express in CHO-K1 cells, the CHO-K1 cells (CCL-61, ATCC, Manassas, VA) were transfected with the plasmids (pShuttle-EV, or pShuttle-ATP8B1-FLAG and pShuttle-HA-CDC50A), using PEI MAX (Polysciences, Warrington, PA). Forty-eight hours after the transfection, the cells were detached from dishes and were collected in PBS containing 5 mM EDTA, and thereafter, the cells were recovered in a precipitate by centrifugation. The cells (2×10^6 cells/sample) were washed and were then equilibrated at 15° C. for 15 minutes in 500 μL of HBSS (14025092, Thermo Fisher Scientific). An equal volume of 1 μg/mL 18:1-06:0 NBD-PC (810132, Avanti Polar Lipids) or 10 μg/mL 12:0 LysoNBD-PC (810128P: Avanti Polar Lipids) was added to the cell suspension, and the obtained mixture was then incubated at 15° C. Thereafter, at each time point, 300 μL of a cell suspension was collected, and was mixed with 300 μl of HBSS (ice cold) containing 5% fatty acid-free BSA (A6003: Sigma-Aldrich) to extract NBD-lipids incorporated into the exoplasmic leaflet of the plasma membrane as well as unincorporated NBD-Lipids.\nNext, 10,000 cells were analyzed with a BD FACSCelesta (BD Bioscience, San Jose, CA) to measure the fluorescence of NBD-lipids incorporated into the cytoplasmic leaflet of the plasma membrane. The mean value of the fluorescence intensities per cell was calculated. Propidium iodide (P378: DOJINDO, Kumamoto, Japan) positive cells were excluded from the analysis."}, "Tax-iIEC-KO mice": {"system": "Tax-iIEC-KO mice", "conditions": "8 to 10 weeks of age", "from_the_text": "Atp8b1^flox/flox mice were mated with villin-Cre/ERT2 transgenic mice (Stock No. 020282; The Jackson Laboratory), and Atp8b1^flox/+; villin-Cre/ERT2 mice in the obtained offsprings were then mated with Atp8b1^flox/flox mice to obtain Tamoxifen-induced, intestinal epithelial cell (IEC)-specific Atp8b1 knockout (Atp8b1Tax-iIEC-KO: Atp8b1^flox/flox; villin-Cre/ERT2) mice (Atp8b1 Tax-iIEC-KO mice). The resulting Atp8b1 Tax-iIEC-KO mice and littermate Atp8b1^flox/flox mice were used for animal experiments.\nALT and AST were determined by automatic measurement with Dri-chem (FUJIFILM, Tokyo, Japan).\nThe concentrations of choline, betaine, dimethylglycine (N,N-dimethylglycine) and glycerophosphorylcholine (sn-glycero-3-phosphocholine) in plasma were determined by liquid chromatography/tandem mass spectrometry (LC/MS/MS) assay. The sample was mixed with 98-fold volume of ethanol and 1-fold volume of the internal standard (IS) solution (10 μmol/L choline in water, 10 μmol/L glycerophosphorylcholine in water, and 1 μmol/L betaine in water). After vortex mixing, the sample was centrifuged at 21,500×g at 4° C. for 5 minutes. The obtained supernatant was injected into a UHPLC Nexera liquid chromatography system (Shimadzu co., Kyoto, Japan) equipped with an Ascentis Express HILIC column (2.1×50 mm, 2.7 μm, Merck KGaA, Darmstadt, Germany), and was then maintained at 4° C. The analyte was separated from the internal standard by gradient elution of mobile phase A (10 mmol/L ammonium acetate in water) and of mobile phase B (acetonitrile/water mixture) (99:1, v/v)). The gradient elution was carried out under the following conditions: 0-2 min., 82.5% B; 2-4 min., 82.5% to 5% B and 4-7 min. 5% B with a flow rate of 0.6 mL/min. The eluate was directly subjected to electrospray ionization under a positive ion mode using a 5500QTRAP mass spectrometer (Sciex pte. ltd., Toronto, Canada). All target molecules were scanned by selected reaction monitoring (SRM) mode.\nEight-week-old Tax-iIEC-KO mice and control mice were started to be orally administered with a normal saline, or with 50 mg/kg, 150 mg/kg or 500 mg/kg chloride choline, three times a day, and at the same time, the Tax-iIEC-KO mice and the control mice were administered with 1 mg/day of Tamoxifen for 5 consecutive days. Oral administration with a normal saline, or with 50 mg/kg, 150 mg/kg or 500 mg/kg chloride choline, three times a day, was continued, and thereafter, the mice were dissected at 10 weeks of age. The doses of 150 mg/kg and 500 mg/kg were determined by estimating the amount of choline consumed by the 0.3% choline supplemented diet group and the 1% choline supplemented diet group based on the daily food intake of mice."}, "ATP8B1 KO Caco-2 cells": {"system": "ATP8B1 KO Caco-2 cells", "experiment": "Cytotoxicity test (LDH release) in ATP8B1 KO Caco-2 cells", "conditions": "ATP8B1 KO Caco-2 cell line; 24 hours; various concentrations", "experimental": "(§1) Caco-2 cells were cultured in DMEM (Dulbecco's modified Eagle's medium) (11995-065, Thermo Fisher Scientific) supplemented with 10% fetal bovine serum (10437, Thermo Fisher Scientific), 1% nonessential amino acids (11140-050, Thermo Fisher Scientific), 1% penicillin and streptomycin (15140-122, Thermo Fisher Scientific). The cells were cultured under conditions of 37° C., 5% CO2 and a humidity of 95%.\n(§2) 5 mM Edelfosine dissolved in ethanol (CAY-60912-10, Cayman), 10 mg/mL lysophosphatidylcholine (LysoPC) dissolved in water/ethanol (1:1, v/v) (123-03781, FUJIFILM Wako Pure Chemical), and 10 mg/mL lysophosphatidylethanolamine (LysoPE) (L4754, Sigma-Aldrich) dissolved in ethanol were prepared as stock solutions. Caco-2 cells and ATP8B1 KO Caco-2 cells were seeded on 96-well plates at a cell density of 50,000 cells/well, and were then cultured, while replacing the medium with a fresh medium every 2 days. After 7 days of the culture, the cells were cultured for 24 hours in a new medium supplemented with various concentrations of edelfosine, lysophosphatidylcholine and lysophosphatidylethanolamine. Cytotoxicity was measured using, as an indicator, the amount of lactate dehydrogenase (LDH) released from the injured cells into the medium. The amount of LDH in the medium was measured using the Cytotoxicity LDH Assay Kit-WST (CK12, Dojindo) according to the instructions included therewith."}, "Caco-2 cells": {"system": "Caco-2 cells", "experiment": "Cytotoxicity test (LDH release) in wild-type Caco-2 cells", "conditions": "wild-type Caco-2 cell line; 24 hours; various concentrations", "experimental": "as §1, §2"}, "[1]": {"conditions": "to such an extent that extension of autologous liver survival was expected; cited from earlier work"}, "[2]": {"conditions": "CHO-K1 cells expressing functional ATP8B1 (ATP8B1+CDC50A)"}, "[3]": {"conditions": "CHO-K1 cells without ATP8B1 expression (EV)"}, "[4]": {"conditions": "oral 50 mg/kg three times a day"}, "[5]": {"conditions": "oral 150 mg/kg three times a day"}, "[6]": {"conditions": "oral 500 mg/kg three times a day"}}, "note": "Like-named read-outs stand apart in the source and are kept apart here.", "data": [{"compound": "18:1-06:0 NBD-PC", "values": [{"measurement": "incorporation of NBD-lipid into the cells (flow cytometry)", "setting": "ATP8B1+CDC50A; [2]", "value": "incorporated into the cells"}, {"measurement": "incorporation of NBD-lipid into the cells (flow cytometry)", "setting": "ATP8B1+CDC50A; [3]", "value": "incorporated into the cells in reduced amounts"}]}, {"compound": "C[N+](C)(C)CCOP(=O)([O-])OCC(O)COC(=O)CCCCCCCCCCCNc1ccc([N+](=O)[O-])c2nonc12", "note": "(stereo not shown) [NBD-LysoPC, 12:0 LysoNBD-PC]", "values": [{"measurement": "incorporation of NBD-lipid into the cells (flow cytometry)", "setting": "ATP8B1+CDC50A; [2]", "value": "incorporated into the cells"}, {"measurement": "incorporation of NBD-lipid into the cells (flow cytometry)", "setting": "ATP8B1+CDC50A; [3]", "value": "incorporated into the cells in reduced amounts"}]}, {"compound": "C[N+](C)(C)CCO.[Cl-]", "note": "[chloride choline]", "values": [{"measurement": "body weight loss of the Tax-iIEC-KO mice", "setting": "Tax-iIEC-KO mice; [4]", "value": "suppression"}, {"measurement": "concentration of betaine in the liver", "setting": "Tax-iIEC-KO mice; [4]", "value": "recovered up to the same level as those in the control mice"}, {"measurement": "concentration of choline in the liver", "setting": "Tax-iIEC-KO mice; [4]", "value": "recovered up to the same level as those in the control mice"}, {"measurement": "liver injury markers (AST and ALT)", "setting": "Tax-iIEC-KO mice; [4]", "value": "normalization"}, {"measurement": "body weight loss of the Tax-iIEC-KO mice", "setting": "Tax-iIEC-KO mice; [5]", "value": "suppression"}, {"measurement": "concentration of betaine in the liver", "setting": "Tax-iIEC-KO mice; [5]", "value": "recovered up to the same level as those in the control mice"}, {"measurement": "concentration of choline in the liver", "setting": "Tax-iIEC-KO mice; [5]", "value": "recovered up to the same level as those in the control mice"}, {"measurement": "liver injury markers (AST and ALT)", "setting": "Tax-iIEC-KO mice; [5]", "value": "normalization"}, {"measurement": "body weight loss of the Tax-iIEC-KO mice", "setting": "Tax-iIEC-KO mice; [6]", "value": "suppression"}, {"measurement": "concentration of betaine in the liver", "setting": "Tax-iIEC-KO mice; [6]", "value": "recovered up to the same level as those in the control mice"}, {"measurement": "concentration of choline in the liver", "setting": "Tax-iIEC-KO mice; [6]", "value": "recovered up to the same level as those in the control mice"}, {"measurement": "liver injury markers (AST and ALT)", "setting": "Tax-iIEC-KO mice; [6]", "value": "normalization"}]}, {"compound": "lysophosphatidylcholine [LPC]", "values": [{"measurement": "cytotoxicity (LDH released into the medium)", "setting": "ATP8B1 KO Caco-2 cells", "value": "increased cytotoxicity in a dose-dependent manner"}, {"measurement": "cytotoxicity (LDH released into the medium)", "setting": "Caco-2 cells", "value": "did not cause significant cytotoxicity"}]}, {"compound": "sodium phenylbutyrate", "values": [{"measurement": "therapeutic effects on PFIC1", "setting": "[1]", "value": "did not exhibit therapeutic effects on PFIC1"}]}]}
